Source: patent US8076321B2, “Compositions for treatment of systemic mastocytosis” (priority 2005, dated 2011)
≈ marks a conversion by molar mass, not a printed value. Where “and” joins values, the source holds several entries; their conditions need not be identical. Equal values may be shown once. Entries after “also recorded” stand apart in the source; their conditions may differ. Read-outs that look alike come from different tables or passages of the source.

Assays:
[1] = molecular target: T1, KIT V560G (HMC-1.1 cells) (Homo sapiens, UniProt P10721, V560G); test: KIT phosphorylation by immunoprecipitation and Western blotting in HMC-1.1 cells; format: cell-based; conditions: 1 μM, 4 hours
T1 construct: endogenous in cells; host or cells: HMC-1.1 (subclone of the human mast cell leukemia line HMC-1)
T1 sequence (P10721 26-976 V560G): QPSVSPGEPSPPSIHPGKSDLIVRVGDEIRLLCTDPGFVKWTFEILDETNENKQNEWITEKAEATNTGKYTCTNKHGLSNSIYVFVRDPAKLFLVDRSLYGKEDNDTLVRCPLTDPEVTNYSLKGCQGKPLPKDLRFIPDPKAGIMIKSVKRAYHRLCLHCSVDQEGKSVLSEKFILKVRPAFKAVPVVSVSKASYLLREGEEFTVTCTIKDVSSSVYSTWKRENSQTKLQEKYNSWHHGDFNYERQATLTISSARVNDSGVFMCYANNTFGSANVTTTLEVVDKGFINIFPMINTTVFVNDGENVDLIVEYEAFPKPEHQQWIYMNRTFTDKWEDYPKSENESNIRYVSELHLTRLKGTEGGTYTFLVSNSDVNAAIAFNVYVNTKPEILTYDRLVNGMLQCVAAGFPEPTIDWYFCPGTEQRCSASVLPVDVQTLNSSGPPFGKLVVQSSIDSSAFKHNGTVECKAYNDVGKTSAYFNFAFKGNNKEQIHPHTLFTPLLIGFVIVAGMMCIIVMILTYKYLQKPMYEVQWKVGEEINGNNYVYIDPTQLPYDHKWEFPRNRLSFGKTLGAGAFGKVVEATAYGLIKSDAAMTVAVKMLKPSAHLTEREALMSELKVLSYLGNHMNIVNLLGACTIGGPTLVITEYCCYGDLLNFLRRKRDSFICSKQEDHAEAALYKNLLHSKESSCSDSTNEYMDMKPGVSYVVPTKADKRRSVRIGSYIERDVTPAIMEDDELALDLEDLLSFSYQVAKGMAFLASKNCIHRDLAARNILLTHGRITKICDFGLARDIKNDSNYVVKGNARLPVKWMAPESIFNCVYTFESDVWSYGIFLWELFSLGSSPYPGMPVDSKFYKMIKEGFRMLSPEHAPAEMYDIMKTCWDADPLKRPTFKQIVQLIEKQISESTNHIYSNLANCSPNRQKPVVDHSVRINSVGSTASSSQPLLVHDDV
Description: (§1) In case of Ton.Kit.wt cells, KIT phosphorylation is induced by adding rhSCF (100 ng/ml). Immunoprecipitation (IP) and Western blotting are performed as described previously.^32 In brief, cells are washed at 4° C. and resuspended in RIPA buffer (1 ml buffer per 10^8 cells) consisting of 50 mM Tris, 150 mM sodium chloride (NaCl), 1% nonidet P40 (NP-40), 0.25% deoxycholic acid, 0.1% sodium dodecyl sulfate (SDS), 1 mM ethylene-diamine-tetraacetic acid (EDTA), 1 mM sodium fluoride (NaF), 1 mM phenylmethylsulfonyl fluoride (PMSF) and 1 mM sodium orthovanadate (Na3VO4). After incubation in RIPA buffer supplemented with proteinase inhibitor cocktail (Roche) for 30 minutes at 4° C. (vortexed vigorously every 5 minutes), lysates are centrifuged to remove insoluble particles. For IP, lysates from 1×10^7 cells are incubated with anti-KIT antibody SR1^37 (kindly provided by Dr. V. Broudy, University of Washington, Seattle, Wash.) or with the anti-KIT antibody 1C1^38 (kindly provided by Dr. H.-J. Bühring, University of Tübingen, Germany) and protein G Sepharose beads (Amersham) in IP-buffer (50 mM Tris-Cl, pH 7.4, 150 mM NaCl, 100 mM NaF, and 1% NP40) at 4° C. overnight. Then, beads are washed 3 times in IP buffer. […] Membranes are blocked for 1 hour in 5% blocking reagent (Roche) and are then incubated with anti-KIT antibody 1C1 or with the monoclonal antibody 4G10 (Upstate Biotechnology, Lake Placid, N.Y.) directed against tyrosine-phosphorylated proteins, at 4° C. overnight. Antibody reactivity is made visible by sheep anti-mouse IgG antibody and Lumingen PS-3 detection reagent (both from Amersham), and a CL-Xposure film (Pierce Biotechnology, Rockford, Ill.).
(§2) In case of Ton.Kit.wt cells, KIT phosphorylation was induced by adding rhSCF (100 ng/ml). […]

[2] = molecular target: T2, wt KIT (Ton.Kit.wt Ba/F3 cells) (Homo sapiens, UniProt P10721); test: KIT phosphorylation by immunoprecipitation and Western blotting in Ton.Kit.wt cells; format: cell-based; conditions: 1 μM, 4 hours; doxycycline, SCF 100 ng/ml
T2 construct: expressed in transfected cells
T2 sequence (P10721 26-976): as the sequence (P10721 26-976 V560G) above, with G535V counted along it
Description: as §1, §2

[3] = system: normal bm cells; test: 3H-thymidine uptake in normal bone marrow cells (control); format: cell-based, human; conditions: control sample, not shown
Description: Both patients gave informed consent before bm puncture. The bm aspirate is obtained from the posterior iliac crest and collected in syringes containing preservative-free heparin. Cells are layered over Ficoll to isolate mononuclear cells (MNC).
In select experiments, HMC-1 cells (both subclones) are incubated with various concentrations of IFNα (0.1-500,000 U/ml) or 2CdA (0.005-10 μg/ml).
The bm aspirate samples were collected in syringes containing preservative-free heparin. Cells were layered over Ficoll to isolate mononuclear cells (MNC). […] Both patients gave written informed consent before bm puncture or blood donation. The study was approved by the local institutional review board and was conducted in accordance with the declaration of Helsinki.
Filters were air-dried, and the bound radioactivity was counted in a β-counter (Top-Count NXT, Packard Bioscience). […] All experiments were performed in triplicates.

[4] = system: HMC-1.2 cells; test: Apoptosis in HMC-1.2 cells (light and electron microscopy, annexin V/PI, Tunel); format: cell-based, human; conditions: 1 μM, 24 hours
Description: For flow cytometric determination of apoptosis and cell viability, combined annexin V/propidium iodide staining is performed. […] Thereafter, cells are washed in PBS and then are incubated with annexinV-APC (Alexis Biochemicals, Lausen, Switzerland) in binding buffer containing HEPES (10 mM, pH 7.4), NaCl (140 mM), and CaCl2 (2.5 mM). Thereafter, propidium iodide (1 μg/ml) is added. Cells are then washed and analyzed by flow cytometry on a FACSCalibur (Becton Dickinson).

[5] = system: HMC-1.2 cells; test: Cell surface antigen expression on HMC-1.2 cells by flow cytometry; format: cell-based, human; conditions: 24 hours
Description: After incubation with drugs, HMC-1 cells are washed and subjected to single color flow cytometry using PE-conjugated antibodies against MC antigens known to be overexpressed on neoplastic MC in SM (compared to normal MC) and/or are expressed at an early stage of mastopoiesis (CD2, CD13, CD63, CD117, CD164, CD203c).^45-47 Flow cytometry is performed on a FACSan (Becton Dickinson) as described previously.^29
Flow cytometry was performed on a FACScan (Becton Dickinson) as described.^30,37,51

[6] = Human trials, Maximum Tolerated Dose; format: in vivo
[7] = system: HMC-1.2 cells; test: Apoptosis in HMC-1.2 cells (light and electron microscopy, annexin V/PI, Tunel); format: cell-based, human; conditions: 24 hours; for apoptosis in HMC-1.2 cells by light microscopy: various concentrations
[8] = system: HMC-1.1 cells; test: Apoptosis in HMC-1.1 cells (light and electron microscopy, Tunel); conditions: 24 hours; for apoptosis in HMC-1.1 cells by Tunel assay: 1 μM; for apoptosis in HMC-1.1 cells by light microscopy: various concentrations
[9] = system: HMC-1.1 cells; test: cells; conditions: Homo sapiens, read-out: IC50, 3H-thymidine uptake in HMC-1.1 cells
[10] = system: HMC-1.2 cells; test: cells; conditions: Homo sapiens, read-out: IC50, 3H-thymidine uptake in HMC-1.2 cells
[11] = system: HMC-1.2 cells
[12] = system: Ton.Kit.wt cells (Ba/F3 with inducible wt KIT); test: cells; conditions: Mus musculus, BaF3, 48 h, read-out: IC50, SCF-dependent growth of doxycycline-exposed Ton.Kit.wt cells
[13] = system: HMC-1.1 cells
[14] = system: non-transfected Ba/F3 cells; conditions: not shown
[15] = 1 μM, dasatinib various concentrations
[16] = PKC412 1 μM, dasatinib various concentrations

Structure (SMILES) | KIT phosphorylation in HMC-1.1 cells [1] | SCF-induced phosphorylation of KIT in Ton.Kit.wt cells [2] | apoptosis in HMC-1.2 cells by annexinV/propidium iodide flow cytometry and Tunel assay [4] | expression of KIT (CD117) on HMC-1.2 cells [5, 15] | apoptosis in HMC-1.2 cells by light microscopy [7] | apoptosis in HMC-1.1 cells by Tunel assay [8] | apoptosis in HMC-1.1 cells by light microscopy [8] | IC50 [11] [nM] | IC50 [12] [nM] | expression of CD antigens on HMC-1.2 cells ([5]; 1 μM) | IC50 [13] | further results
CO[C@@H]1[C@H](N(C)C(=O)c2ccccc2)C[C@H]2O[C@]1(C)n1c3ccccc3c3c4c(c5c6ccccc6n2c5c31)C(=O)NC4 [PKC412, N-[(9S,10R,11R,13R)-2,3,10,11,12,13-hexahydro-10-methoxy-9-methyl-1-oxo-9,13-epoxy-1H,9H-diindolo[1,2,3-gh:3′,2′,1′-1m]pyrrolo[3,4-j][1,7]benzodiazonin-11-yl]-N-methylbenzamide] | decreased phosphorylation of KIT | decreased the SCF-induced phosphorylation of KIT | induce apoptosis in HMC-1.2; also recorded: also induced apoptosis in both cell lines; also recorded: produced apoptosis in most HMC-1.1 and HMC-1.2 cells | slight decrease | induce apoptosis in both HMC-1 subclones in a dose-dependent manner; also recorded: also found to induce apoptosis in both HMC-1 subclones | also induced apoptosis in both cell lines; also recorded: produced apoptosis in most HMC-1.1 and HMC-1.2 cells | induce apoptosis in both HMC-1 subclones in a dose-dependent manner; also recorded: also found to induce apoptosis in both HMC-1 subclones |  |  |  |  | effect on 3H-thymidine uptake in normal bm cells [3]: showed no effect; also recorded: no effects; expression of CD203c on HMC-1.2 cells ([5]; 1 μM): no significant effects; expression of CD63 on HMC-1.2 cells ([5]; PKC412 1 μM or various, dasatinib various concentrations): significant decrease; also recorded: dose-dependently decreased expression of CD63; expression of CD2 on HMC-1.2 cells [5, 16]: significant decrease; expression of CD13 on HMC-1.2 cells [5, 16]: no significant effects; expression of CD164 on HMC-1.2 cells [5, 16]: significant decrease; Maximum Tolerated Dose (MTD), total dose [6]: 225 mg/day; apoptosis in HMC-1.2 cells by electron microscopy ([7]; 1 μM): produce apoptosis in HMC-1.2 cells
Nc1nc(Cl)nc2c1ncn2[C@H]1C[C@H](O)[C@@H](CO)O1 [2CdA, 2-chlorodeoxyadenosine] |  |  |  |  |  |  |  |  |  |  |  | IC50 [9]: 0.1 to 0.3 µg/mL (≈ 0.35 to 1.05 µM); IC50 [10]: 0.01 to 0.02 µg/mL (≈ 0.035 to 0.07 µM)
Cc1nc(Nc2ncc(C(=O)Nc3c(C)cccc3Cl)s2)cc(N2CCN(CCO)CC2)n1 [dasatinib, reference compound] |  |  |  |  |  |  |  | 200 to 500 | 1 to 10 |  |  | 
Cc1cn(-c2cc(NC(=O)c3ccc(C)c(Nc4nccc(-c5cccnc5)n4)c3)cc(C(F)(F)F)c2)cn1 [AMN107, 4-Methyl-3-[[4-(3-pyridinyl)-2-pyrimidinyl]amino]-N-[5-(4-methyl-1H-imidazol-1-yl)-3-(trifluoromethyl)phenyl]benzamide] | strongly reduced KIT phosphorylation | decreased the SCF-induced phosphorylation of KIT |  | slight decrease | induce apoptosis in both HMC-1 subclones in a dose-dependent manner | potent apoptosis-inducing effects only in HMC-1.1 cells | induce apoptosis in both HMC-1 subclones in a dose-dependent manner | 1000 to 5000 | 30 to 300 | no significant effects | 3 to 10 nM and 5 to 10 nM | growth-inhibitory effect on control (non-transfected) Ba/F3 cells [14]: neither doxycycline (1 μg/ml), nor the TK inhibitors (imatinib, PKC412, AMN107), showed growth-inhibitory effects
Cc1ccc(NC(=O)c2ccc(CN3CCN(C)CC3)cc2)cc1Nc1nccc(-c2cccnc2)n1 [imatinib, reference compound] | reduced KIT phosphorylation | decreased the SCF-induced phosphorylation of KIT | showed no effects on HMC-1.2 cells | slight decrease | showed no effects on HMC-1.2 cells | induced apoptosis only in HMC-1.1 cells; also recorded: potent apoptosis-inducing effects only in HMC-1.1 cells | produce apoptosis in HMC-1.1 cells |  |  | no significant effects | 10 to 30 nM | antiproliferative effect on HMC-1.2 cells ([11]; 48 hours): no significant antiproliferative effects
